Measured values as given in US10961270B2, “Compounds and compositions for treating conditions associated with sting activity” (Innate Tumor Immunity, Inc., priority 2016, dated 2021).
Where two headings read alike, the source gives them in different places.

Tests used:
[1] = test system: STING pathway (IRF pathway reporter, THP1-Dual cells); experiment: STING pathway activation, IRF pathway secreted luciferase (Lucia) reporter in THP1-Dual cells; assay type: cell-based; settings: Quanti LUC luminescence, 24-hour and 48-hour plates prepared, duration not given, read-out: IRF3 (EC50 μM)
Protocol: (§1) STING pathway activation by the compounds described herein was measured using THP1-Dual™ cells. These cells are THP1 monocytes that have been modified to be reporters for the NF[…]B pathway (by inducing secreted embryonic alkaline phosphatase (SEAP) expression) and the IRF pathway (by inducing secreted luciferase (LUCIA)). Both of these pathways are activated by STING agonists in these cells.
(§2) THP1 Dual™ cells (obtained from Invivogen) are maintained in a cell growth medium that includes Roswell Park Memorial Institute medium (RPMI), 10% fetal calf serum (FCS), 100 U/ml Pen/Strep, 2 mM L-glut, 10 mM Hepes, and 1 mM sodium pyruvate. Prior to the assay, the cells were transferred to an assay medium that includes is RPMI, 5% FCS, 100 U/ml Pen/Strep, 2 mM L-glut, 10 mM Hepes, and 1 mM sodium pyruvate. Cells were then counted and evaluated for viability by trypan blue exclusion assay.
(§3) Compounds were dissolved in water or DMSO depending, for example, on their solubility in water or DMSO. The compounds are then diluted in the assay medium and plated into wells of a 384-well tissue culture plate in […] portions. Cells are then added in […] assay medium to result in a final cell concentration of 80,000 cells per well.
(§4) For each set of compounds, two plates were prepared: one plate that was subjected to a 24-hour assay duration, and one plate that was subjected to a 48-hour assay duration. The plates are incubated during their respective assay durations at 37° C., with 5% CO2.
(§5) To carry out the secreted embryonic alkaline phosphatase reporter, 10 µL of cell supernatant was mixed with 90 μL of QUANTI-Blue in a flat-bottom 384 well plate. The plates were incubated at 37′C for 1-2 hours. SEAP activity was measured using a spectrophotometer set at 620 nm. In the secreted luciferase (i.e., Lucia) assay, 10 µL of THP1-Blue™ WASG cell supernatant was plated, then 50 μL Quanti LUC Solution was added. Luminescence of the wells was then measured.

[2] = test system: STING pathway (NFκB pathway reporter, THP1-Dual cells); experiment: STING pathway activation, NFκB pathway secreted embryonic alkaline phosphatase (SEAP) reporter in THP1-Dual cells; assay type: cell-based; settings: QUANTI-Blue, 620 nm, 24-hour and 48-hour plates prepared, duration not given
Protocol: as §1, §2, §3, §4, §5

Row | EC50 [1] | EC50 ([1]; Homo sapiens, THP1-Dual) | Compound | EC50 [2] | EC50 ([2]; Homo sapiens, THP1-Dual) | other results
1 | 1 to 10 µM | – | Nc1ncnc2c1ncn2[C@@H]1O[C@@H]2COP(=O)(S)N[C@H]3[C@@H](O)[C@H](n4cnc5c(N)ncnc54)O[C@@H]3COP(=O)(S)N[C@H]2[C@H]1O (single isomer, unassigned) [Compound 74-0A1] | 1 to 10 µM | – | –
2 | 1 to 10 µM | – | Nc1ncnc2c1ncn2[C@@H]1O[C@@H]2COP(=O)(S)N[C@H]3[C@@H](O)[C@H](n4cnc5c(N)ncnc54)O[C@@H]3COP(=O)(S)N[C@H]2[C@H]1O (single isomer, unassigned) [Compound 74-0A2] | < 1 µM | – | –
3 | – | 10 to 49 µM | Nc1ncnc2c1ncn2[C@@H]1O[C@@H]2COP(=O)(S)N[C@H]3[C@@H](O)[C@H](n4cnc5c(N)ncnc54)O[C@@H]3COP(=O)(O)N[C@H]2[C@H]1O (single isomer, unassigned) [Compound 74-0B0] | – | 10 to 49 µM | –
4 | 10 to 49 µM | – | Nc1ncnc2c1ncn2[C@@H]1O[C@@H]2COP(=O)(S)N[C@H]3[C@@H](O)[C@H](n4cnc5c(N)ncnc54)O[C@@H]3COP(=O)(S)N[C@H]2[C@H]1O (single isomer, unassigned) [Compound 74-0B1] | 50 to 100 µM | – | –
5 | – | 10 to 49 µM | Nc1nc2c(ncn2[C@@H]2O[C@@H]3COP(=O)(S)N[C@H]4[C@@H](O)[C@H](n5cnc6c(=O)[nH]c(N)nc65)O[C@@H]4COP(=O)(O)N[C@H]3[C@H]2O)c(=O)[nH]1 (single isomer, unassigned) [Compound 76-0A1] | – | 1 to 10 µM | –
6 | 10 to 49 µM | – | Nc1nc2c(ncn2[C@@H]2O[C@@H]3COP(=O)(S)N[C@H]4[C@@H](O)[C@H](n5cnc6c(=O)[nH]c(N)nc65)O[C@@H]4COP(=O)(S)N[C@H]3[C@H]2O)c(=O)[nH]1 (single isomer, unassigned) [Compound 76-0A2] | 10 to 49 µM | – | –
7 | 1 to 10 µM | – | Nc1nc2c(ncn2[C@@H]2O[C@@H]3COP(=O)(S)N[C@H]4[C@@H](O)[C@H](n5cnc6c(=O)[nH]c(N)nc65)O[C@@H]4COP(=O)(S)N[C@H]3[C@H]2O)c(=O)[nH]1 (single isomer, unassigned) [Compound 76-0A3] | < 1 µM | – | –
8 | 10 to 49 µM | – | Nc1nc2c(ncn2[C@@H]2O[C@@H]3COP(=O)(S)N[C@H]4[C@@H](O)[C@H](n5cnc6c(=O)[nH]c(N)nc65)O[C@@H]4COP(=O)(S)N[C@H]3[C@H]2O)c(=O)[nH]1 (single isomer, unassigned) [Compound 76-0B1] | 50 to 100 µM | – | –
9 | – | 10 to 49 µM | Nc1ncnc2c1ncn2[C@@H]1O[C@@H]2COP(=O)(O)N[C@H]3[C@@H](O)[C@H](n4cnc5c(N)ncnc54)O[C@@H]3COP(=O)(O)N[C@H]2[C@H]1O [Compound 73, Diammonium (1S,6S,8R,9R,10S,15S,17R,18R)-8,17-bis(6-amino-9H-purin-9-yl)-9,18-dihydroxy-3,12-dioxo-4,7,13,16-tetraoxa-2,11-diaza-3λ^s,12λ^s-diphosphatricyclo[13.3.0.0^6,10]octadecane-3,12-bis(olate)] | – | 1 to 10 µM | –
10 | – | 10 to 49 µM | Nc1nc2c(ncn2[C@@H]2O[C@@H]3COP(=O)(O)N[C@H]4[C@@H](O)[C@H](n5cnc6c(=O)[nH]c(N)nc65)O[C@@H]4COP(=O)(O)N[C@H]3[C@H]2O)c(=O)[nH]1 [Compound 75, Diammonium (1S,6S,8R,9R,10S,15S,17R,18R)-8,17-bis(2-amino-6-oxo-6,9-dihydro-1H-purin-9-yl)-9,18-dihydroxy-3,12-dioxo-4,7,13,16-tetraoxa-2,11-diaza-3λ^s,12λ^s-diphosphatricyclo[13.3.0.0^6,10]octadecane-3,12-bis(olate)] | – | 10 to 49 µM | –
11 | – | – | Nc1ncnc2c1ncn2[C@@H]1O[C@@H]2CNP(=O)(S)O[C@H]3[C@@H](F)[C@H](n4cnc5c(N)ncnc54)O[C@@H]3CNP(=O)(S)O[C@H]2[C@H]1F (stereo partly drawn) [Compound 77, Diammonium [(1R,6R,8R,9R,10R,15R,17R,18R)-8,17-bis(6-amino-9H-purin-9-yl)-9,18-difluoro-3,12-dioxo-12-sulfanidyl-2,7,11,16-tetraoxa-4,13-diaza-3λ^s,12λ^s-diphosphatricyclo[13.3.0.0^6,10]octadecan-3-yl]sulfanide] | – | – | EC50 ([1]; Homo sapiens): 50 to 100 µM; EC50 ([2]; Homo sapiens): 50 to 100 µM
12 | – | 50 to 100 µM | Nc1ncnc2c1ncn2[C@@H]1O[C@@H]2COP(=O)(O)N[C@H]3[C@@H](F)[C@H](n4cnc5c(N)ncnc54)O[C@@H]3COP(=O)(O)N[C@H]2[C@H]1F [Compound 78, Diammonium (1R,6S,8R,9R,10R,15S,17R,18R)-8,17-bis(6-amino-9H-purin-9-yl)-9,18-difluoro-3,12-dioxo-4,7,13,16-tetraoxa-2,11-diaza-3λ^s,12λ^s-diphosphatricyclo[13.3.0.0^6,10]octadecane-3,12-bis(olate)] | – | 50 to 100 µM | –

Row | Compound | EC50 [1] | EC50 ([1]; Homo sapiens, THP1-Dual) | EC50 [2] | EC50 ([2]; Homo sapiens, THP1-Dual) | other results
13 | Diammonium [(1S,6S,8R,9R,10S,15S,17R,18R)-8-(2-amino-6-oxo-6,9-dihydro-1H-purin-9-yl)-17-(6-amino-9H-purin-9-yl)-9,18-dihydroxy-3,12-dioxo-12-sulfanidyl-4,7,13,16-tetraoxa-2,11-diaza-3λ^s,12λ^s-diphosphatricyclo[13.3.0.0^6,10]octadecan-3-yl]sulfanide [Compound 72-0A2] | 1 to 10 µM | – | 1 to 10 µM | – | –
14 | Diammonium [(1S,6S,8R,9R,10S,15S,17R,18R)-8-(2-amino-6-oxo-6,9-dihydro-1H-purin-9-yl)-17-(6-amino-9H-purin-9-yl)-9,18-dihydroxy-3,12-dioxo-12-sulfanidyl-4,7,13,16-tetraoxa-2,11-diaza-3λ^s,12λ^s-diphosphatricyclo[13.3.0.0^6,10]octadecan-3-yl]sulfanide [Compound 72-0A3] | 1 to 10 µM | – | < 1 µM | – | –
15 | Diammonium [(1S,6S,8R,9R,10S,15S,17R,18R)-8-(2-amino-6-oxo-6,9-dihydro-1H-purin-9-yl)-17-(6-amino-9H-purin-9-yl)-9,18-dihydroxy-3,12-dioxo-12-sulfanidyl-4,7,13,16-tetraoxa-2,11-diaza-3λ^s,12λ^s-diphosphatricyclo[13.3.0.0^6,10]octadecan-3-yl]sulfanide [Compound 72-0B1] | 1 to 10 µM | – | 50 to 100 µM | – | –
16 | Diammonium [(1S,6S,8R,9R,10S,15S,17R,18R)-8-(2-amino-6-oxo-6,9-dihydro-1H-purin-9-yl)-17-(6-amino-9H-purin-9-yl)-9,18-dihydroxy-3,12-dioxo-12-sulfanidyl-4,7,13,16-tetraoxa-2,11-diaza-3λ^s,12λ^s-diphosphatricyclo[13.3.0.0^6,10]octadecan-3-yl]sulfanide [Compound 72-0B2] | 10 to 49 µM | – | 10 to 49 µM | – | –
